Results reported in the supplement of paper PMC9663587.

Key:
Assay in all cases: area over the GR curve, 72 h; higher = more effect;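 also: Dye Drop or Deep Dye Drop imaging of viable cells in 384-well plates (Hoechst nuclei, LIVE/DEAD dye), nine half-log doses, GR normalized to DMSO controls and time-zero plates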
SUM52PE = system: SUM52PE
HS578T = system: HS578T
HCC1143 = system: HCC1143
UACC893 = system: UACC893
HCC38 = system: HCC38
MCF7 = system: MCF7
T47D = system: T47D
EFM19 = system: EFM19
HCC1569 = system: HCC1569
BT474 = system: BT474
SUM159 = system: SUM159
MDAMB231 = system: MDAMB231
SUM229PE = system: SUM229PE

SMILES	area over the GR curve (SUM52PE)	area over the GR curve (HS578T)	area over the GR curve (HCC1143)	area over the GR curve (UACC893)	area over the GR curve (HCC38)	area over the GR curve (MCF7)	area over the GR curve (T47D)	area over the GR curve (EFM19)	area over the GR curve (HCC1569)	area over the GR curve (BT474)	area over the GR curve (SUM159)	area over the GR curve (MDAMB231)	area over the GR curve (SUM229PE)
CCN1CCN(Cc2ccc(Nc3ncc(F)c(-c4cc(F)c5nc(C)n(C(C)C)c5c4)n3)nc2)CC1 (max 10 µM)	0.341 GR	0.634 GR	0.541 GR	0.657 GR	0.64 GR	0.702 GR	0.766 GR	0.478 GR	0.132 GR	0.329 GR	0.372 GR	0.675 GR	0.383 GR
O=C(c1cc(Cc2n[nH]c(=O)c3ccccc23)ccc1F)N1CCN(C(=O)C2CC2)CC1 [Olaparib/AZD2281] (max 10 µM)	-0.0471 GR	0.0997 GR	0.0925 GR	0.0342 GR	0.0719 GR	0.0554 GR	0.0229 GR	0.0595 GR	0.053 GR	0.0431 GR	0.0296 GR	0.0581 GR	0.0365 GR
O=C(CCCCCCC(=O)Nc1ccccc1)NO [Vorinostat] (max 10 µM)	0.0969 GR	0.269 GR	0.294 GR	0.161 GR	0.284 GR	0.349 GR	0.146 GR	0.162 GR	0.163 GR	0.136 GR	0.148 GR	0.282 GR	0.153 GR
Cc1nc(Nc2ncc(C(=O)Nc3c(C)cccc3Cl)s2)cc(N2CCN(CCO)CC2)n1 [Dasatinib] (max 10 µM)	0.451 GR	0.71 GR	0.447 GR	-0.149 GR	0.145 GR	0.483 GR	0.193 GR	0.685 GR	0.483 GR	0.695 GR	0.0885 GR	0.647 GR	0.529 GR
Nc1cc(C(F)(F)F)c(-c2cc(N3CCOCC3)nc(N3CCOCC3)n2)cn1 [Buparlisib/NVP-BKM120] (max 10 µM)	0.338 GR	0.376 GR	0.392 GR	0.587 GR	0.254 GR	0.503 GR	0.482 GR	0.323 GR	0.298 GR	0.53 GR	0.184 GR	0.275 GR	0.279 GR
CC(C)Nc1cc(-c2c[nH]c(C(=O)N[C@H](CO)c3cccc(Cl)c3)c2)c(Cl)cn1 [BVD523] (max 10 µM)	0.129 GR	0.316 GR	0.27 GR	0.267 GR	0.237 GR	0.192 GR	0.185 GR	0.0226 GR	-0.026 GR	-0.0171 GR	0.254 GR	0.232 GR	0.279 GR
CC[C@@H]1C(=O)N(C)c2cnc(Nc3ccc(C(=O)N[C@H]4CC[C@H](N5CCN(CC6CC6)CC5)CC4)cc3OC)nc2N1C(C)C [Volasertib/BI6727] (max 1 µM)	0.488 GR	0.82 GR	0.729 GR	0.813 GR	0.59 GR	0.605 GR	0.385 GR	0.741 GR	0.375 GR	0.636 GR	0.392 GR	0.584 GR	0.605 GR
CNCc1ccc(-c2[nH]c3cc(F)cc4c3c2CCNC4=O)cc1 [Rucaparib] (max 10 µM)	0.0094 GR	0.0974 GR	0.0731 GR	0.164 GR	0.139 GR	0.0771 GR	0.0635 GR	0.0332 GR	-0.0162 GR	0.122 GR	0.0948 GR	0.0793 GR	0.047 GR
CC(C)NC[C@@H](C(=O)N1CCN(c2ncnc3c2[C@H](C)C[C@H]3O)CC1)c1ccc(Cl)cc1 [Ipatasertib/GDC0068] (max 10 µM)	0.0168 GR	0.246 GR	0.0662 GR	0.529 GR	0.122 GR	0.26 GR	0.428 GR	0.185 GR	0.227 GR	0.344 GR	0.0758 GR	0.0065 GR	0.1 GR
Nc1ccc(-c2ccc3ncc4ccc(=O)n(-c5cccc(C(F)(F)F)c5)c4c3c2)cn1 [Torin2] (max 1 µM)	0.533 GR	0.566 GR	0.362 GR	0.698 GR	0.538 GR	0.603 GR	0.522 GR	0.501 GR	0.487 GR	0.604 GR	0.295 GR	0.386 GR	0.345 GR
NC1(C(=O)N[C@@H](CCO)c2ccc(Cl)cc2)CCN(c2nc[nH]c3nccc2-3)CC1 [AZD5363] (max 10 µM)	0.196 GR	0.248 GR	0.0834 GR	0.769 GR	0.0939 GR	0.212 GR	0.623 GR	0.304 GR	0.433 GR	0.568 GR	0.177 GR	-0.0246 GR	0.234 GR
CN(C)C/C=C/C(=O)Nc1ccc(C(=O)Nc2cccc(Nc3cc(-c4c[nH]c5ccccc45)ncn3)c2)cc1 [THZ-P1-2] (max 10 µM)	0.129 GR	-0.017 GR	0.216 GR	0.573 GR	0.181 GR	0.292 GR	0.353 GR	0.131 GR	0.0873 GR	-0.079 GR	0.127 GR	0.163 GR	0.149 GR
O=C1NC(=O)[C@@H](c2cn3c4c(cccc24)CCC3)[C@@H]1c1c[nH]c2ccccc12 [Tivantinib/ARQ197] (max 10 µM)	0.411 GR	0.437 GR	0.498 GR	0.405 GR	0.436 GR	0.453 GR	0.365 GR	0.361 GR	0.278 GR	0.309 GR	0.403 GR	0.323 GR	0.661 GR
CN1CC[C@H](c2c(O)cc(O)c3c(=O)cc(-c4ccccc4Cl)oc23)[C@H](O)C1 [Flavopiridol] (max 1 µM)	0.215 GR	0.254 GR	0.235 GR	0.321 GR	0.29 GR	0.36 GR	0.274 GR	0.191 GR	0.232 GR	0.371 GR	0.256 GR	0.286 GR	0.3 GR
CN(C)C/C=C/C(=O)Nc1ccc(C(=O)Nc2cccc(Nc3ncc(Cl)c(-c4c[nH]c5ccccc45)n3)c2)cc1 [THZ1] (max 1 µM)	0.527 GR	0.518 GR	0.487 GR	0.542 GR	0.525 GR	0.514 GR	0.446 GR	0.159 GR	0.363 GR	0.686 GR	0.161 GR	0.356 GR	0.504 GR
